Reference: patent US20150031102A1, “METHODS AND COMPOSITIONS FOR ENHANCED PRODUCTION OF BUTANOL BY CLOSTRIDIA” (Butrolix LLC, priority 2012, published 2015)
Marks after values point to notes of the source that are not given here.

Test system: C. acetobutylicum
Assay: Continuous culture, 2.5 L, dilution rate 0.01 per hour, 20 days (butanol, residual glucose, optical density, pH, yield, productivity)
Assay type: cell-based, Clostridium acetobutylicum
Conditions: for Optical density (600 nm): 50 nM BP110517 and its control; for Productivity / Yield / Butanol: 50 nM peptide, Table 53; for Butanol: average ± SD of triplicate samples; for Average Butanol / Average Glucose: Treated (50 nM)
Procedure: Lastly, 2.5 L continuous culture studies were conducted using the optimum peptide treatment level that was determined by the sequential batch transfer experiments. An untreated and a peptide-treated culture were grown in parallel, identical vessels with identical dilution rates for 20 days. The continuous cultures were initiated by inoculating 2.25 L of sterile medium in each culture vessel using 250 mL of peptide-treated and untreated batch cultures that had been grown for 24 hours. The batch cultures used as inoculum were the third of sequential batch transfer cultures, which made inoculation of the continuous cultures the fourth sequential transfer. After inoculation, the continuous cultures were grown for 24 hours before beginning to feed fresh medium at a rate of 0.01 volumes per hour. Triplicate samples were taken from each continuous culture every 24 hours. Optical density of the replicates was measured and culture supernatants were recovered following centrifugation and analyzed later for butanol and residual glucose concentrations. The analyses were used to calculate yield and productivity of the cultures.
Clostridium acetobutylicum strain ATCC 824 was used in all experiments and the growth medium used for sequential batch transfer, time course, and continuous culture experiments contained yeast extract, casamino acids, L-cysteine, L-asparagine, phosphate buffer, trace minerals, and 6% glucose. What are believed to be quorum-sensing peptides that were used in the experiments were chemically synthesized peptides SEQ ID NO: 143 (amino acid sequence: SYPGWSW) and SEQ ID NO: 144 (amino acid sequence: ILILISG). Routine growth of the bacteria as well as the sequential batch and time course experiments were conducted in a Form a Scientific Model 1029 anaerobic gas chamber at 32° C. Continuous cultures were performed at 32° C. using duplicate New Brunswick Scientific BioFlo 3000 apparati with a dilution rate of 0.01 volume per hour, 75 rpm agitation, and nitrogen gas sparging. Optical density of culture samples was measured at 600 nm in a Beckman DU 600 series spectrophotometer and glucose was analyzed using a YSI Model 2700 Select Biochemistry Analyzer with internal glucose calibration. Butanol concentrations were determined by measuring experimental and standard samples using a Varian Saturn 3 Gas Chromatograph/Mass Spectrometer and calculating butanol concentrations using standard curves.
Data from continuous cultures using a 6% glucose medium in vessels with a working volume of 2.5 L run at a dilution rate of 0.01 per hour. Two vessels were run in parallel, one of which was treated with 50 nM of peptide SEQ ID NO: 143 and the other was untreated. The vessels were sparged continuously with nitrogen gas to maintain anaerobic conditions and were agitated at 75 rpm. On Day 0, the vessels were inoculated with a 1/10 volume (250 mL) of overnight cultures that were either treated with peptide or untreated, and that were the third transfer of the cultures, which made inoculation of the continuous cultures the fourth transfer. Triplicate samples were collected aseptically from each vessel immediately after inoculation and every 24 hours thereafter. The cultures were allowed to grow for 24 hours prior to beginning to feed fresh medium, and were maintained for 20 days each, without pH control. The optical density of each sample was measured immediately at 600 nm, the samples were centrifuged to remove cells, and the cell-free supernatants were frozen for later analysis. A representative experiment is shown in FIG. 19 and Tables 34 and 35.
Using the optimum peptide treatment level that was determined by the sequential batch transfer experiments, 2.5 L continuous culture studies were conducted. An untreated and a peptide-treated culture were grown in parallel, identical vessels using the same dilution rates for 20 days for each of the peptides BP110517 and BP1106213. […]

[1] = 50 nM BP110517, last five days of culture
[2] = 24 hour period preceding day 10
[3] = 24 hour period preceding day 11
[4] = 24 hour period preceding day 12
[5] = 24 hour period preceding day 13
[6] = 24 hour period preceding day 14
[7] = 24 hour period preceding day 15
[8] = 24 hour period preceding day 16
[9] = 24 hour period preceding day 17
[10] = 24 hour period preceding day 18
[11] = 24 hour period preceding day 19
[12] = 24 hour period preceding day 20

SYPGWSW [peptide SEQ ID NO: 143]
Butanol content compared with the control (50 nM BP110517, between days 5 and 9): significantly more butanol than the control
Butanol content compared with the control [1]: significantly greater than the control
Butanol level lower than earlier in the culture period [1]: roughly 75%
Optical density (600 nm) (after day 13, recovered after day 17): less than 0.500
Optical density (600 nm) (first 9 days): around 2.0
Productivity (24 hour period preceding day 1): 0.53 g Butanol/L-h
Yield (24 hour period preceding day 1): 0.19 g Butanol/g Glucose
Productivity (24 hour period preceding day 2): −0.17 g Butanol/L-h
Yield (24 hour period preceding day 2): −0.28 g Butanol/g Glucose
Productivity (24 hour period preceding day 3): 0.07 g Butanol/L-h
Yield (24 hour period preceding day 3): 0.11 g Butanol/g Glucose
Productivity (24 hour period preceding day 4): 0.29 g Butanol/L-h
Yield (24 hour period preceding day 4): 0.46 g Butanol/g Glucose
Productivity (24 hour period preceding day 5): 0.24 g Butanol/L-h
Yield (24 hour period preceding day 5): 0.39 g Butanol/g Glucose
Productivity (24 hour period preceding day 6): 0.07 g Butanol/L-h
Yield (24 hour period preceding day 6): 0.11 g Butanol/g Glucose
Productivity (24 hour period preceding day 7): 0.14 g Butanol/L-h
Yield (24 hour period preceding day 7): 0.23 g Butanol/g Glucose
Productivity (24 hour period preceding day 8): 0.06 g Butanol/L-h
Yield (24 hour period preceding day 8): 0.10 g Butanol/g Glucose
Productivity (24 hour period preceding day 9): 0.07 g Butanol/L-h
Yield (24 hour period preceding day 9): 0.11 g Butanol/g Glucose
Productivity [2]: 0.00 g Butanol/L-h
Yield [2]: 0.01 g Butanol/g Glucose
Productivity [3]: 0.20 g Butanol/L-h
Yield [3]: 0.33 g Butanol/g Glucose
Productivity [4]: 0.02 g Butanol/L-h
Yield [4]: 0.04 g Butanol/g Glucose
Productivity [5]: −0.11 g Butanol/L-h
Yield [5]: −0.18 g Butanol/g Glucose
Productivity [6]: 0.00 g Butanol/L-h
Yield [6]: 0.00 g Butanol/g Glucose
Productivity [7]: 0.03 g Butanol/L-h
Yield [7]: 0.05 g Butanol/g Glucose
Productivity [8]: 0.11 g Butanol/L-h
Yield [8]: 0.17 g Butanol/g Glucose
Productivity [9]: −0.01 g Butanol/L-h
Yield [9]: −0.02 g Butanol/g Glucose
Productivity [10]: 0.01 g Butanol/L-h
Yield [10]: 0.01 g Butanol/g Glucose
Productivity [11]: 0.06 g Butanol/L-h
Yield [11]: 0.09 g Butanol/g Glucose
Productivity [12]: 0.01 g Butanol/L-h
Yield [12]: 0.01 g Butanol/g Glucose
Butanol (day 0): 0.9 ± 0.0 g/L
Butanol (day 1): 12.8 ± 4.4 g/L
Butanol (day 2): 5.5 ± 0.7 g/L
Butanol (day 3): 5.8 ± 1.7 g/L
Butanol (day 4): 11.2 ± 5.3 g/L
Butanol (day 5): 14.2 ± 0.3^c g/L
Butanol (day 6): 12.3 ± 0.6^c g/L
Butanol (day 7): 12.6 ± 0.0^c g/L
Butanol (day 8): 11.0 ± 0.4 g/L
Butanol (day 9): 9.9 ± 0.3^c g/L
Butanol (day 10): 7.6 ± 0.3 g/L
Butanol (day 11): 10.6 ± 0.7 g/L
Butanol (day 12): 8.5 ± 2.8 g/L
Butanol (day 13): 3.6 ± 0.2 g/L
Butanol (day 14): 2.7 ± 0.4 g/L
Butanol (day 15): 2.8 ± 0.6 g/L
Butanol (day 16): 4.7 ± 0.1^c g/L
Butanol (day 17): 3.3 ± 0.2^c g/L
Butanol (day 18): 2.7 ± 0.0^c g/L
Butanol (day 19): 3.4 ± 0.1^c g/L
Butanol (day 20): 2.7 ± 0.2^c g/L
Effect on butanol yield and productivity (BP110517, continuous cultures (summary of findings)): increased butanol yield and productivity
Average Butanol (day 0): 0.91 g/L
Average Glucose (day 0): 66.1 g/L
Average Butanol (day 1): 12.81 g/L
Average Glucose (day 1): 28.2 g/L
Average Butanol (day 2): 5.54 g/L
Average Glucose (day 2): 3.3 g/L
Average Butanol (day 3): 5.78 g/L
Average Glucose (day 3): 3.1 g/L
Average Butanol (day 4): 11.22 g/L
Average Glucose (day 4): 2.4 g/L
Average Butanol (day 5): 14.19 g/L
Average Glucose (day 5): 0.0 g/L
Average Butanol (day 6): 12.27 g/L
Average Glucose (day 6): 0.0 g/L
Average Butanol (day 7): 12.64 g/L
Average Glucose (day 7): 0.4 g/L
Average Butanol (day 8): 10.95 g/L
Average Glucose (day 8): 0.0 g/L
Average Butanol (day 9): 9.89 g/L
Average Glucose (day 9): 2.3 g/L
Average Butanol (day 10): 7.55 g/L
Average Glucose (day 10): 13.4 g/L
Average Butanol (day 11): 10.55 g/L
Average Glucose (day 11): 6.1 g/L
Average Butanol (day 12): 8.46 g/L
Average Glucose (day 12): 0.0 g/L
Average Butanol (day 13): 3.63 g/L
Average Glucose (day 13): 2.0 g/L
Average Butanol (day 14): 2.73 g/L
Average Glucose (day 14): 14.2 g/L
Average Butanol (day 15): 2.82 g/L
Average Glucose (day 15): 23.8 g/L
Average Butanol (day 16): 4.71 g/L
Average Glucose (day 16): 29.2 g/L
Average Butanol (day 17): 3.32 g/L
Average Glucose (day 17): 30.4 g/L
Average Butanol (day 18): 2.68 g/L
Average Glucose (day 18): 40.1 g/L
Average Butanol (day 19): 3.41 g/L
Average Glucose (day 19): 33.8 g/L
Average Butanol (day 20): 2.69 g/L
Average Glucose (day 20): 40.3 g/L
